System: Sprague-Dawley rats
Assay: Insulinotropic action during an intravenous glucose challenge in rats
Format: in vivo
Conditions: peptide 30 pmol/kg/min i.v.; n.s. versus saline

With GLP-1[7-36]NH2 the “increase of 60-min insulin AUC versus saline-treated rats” value was 20%.
